Experimental findings from ChEMBL document CHEMBL2163275, “The lipogenesis pathway as a cancer target” (J Med Chem, 2011) are described below.

Molecules are shown by their SMILES.

The nature of test [1]: Inhibition of acetyl coA carboxylase in human MCF7 cells. In kind it is cell-based.
Test [2] is described as follows: Inhibition of duck liver FASN. Also noted: species or system Anas platyrhynchos.
For test [3], the system named is BGC-823. In words: Cytotoxicity against human BGC823 cells. In kind it is functional, cell-based.
Test [4] concerns the target Acetyl-CoA carboxylase 1 (Homo sapiens, UniProt Q13085). In words: Inhibition of human ACC1 using acetyl coA as substrate and [14C]NaHCO3 incubated for 5 mins prior to substrate addition by liquid scintillation counting.
The target of test [5] is Acetyl-CoA carboxylase 2 (Homo sapiens, UniProt O00763). Kind of test: Inhibition of human ACC2 using acetyl coA as substrate and [14C]NaHCO3 incubated for 5 mins prior to substrate addition by liquid scintillation counting.
The target of test [6] is T1, Fatty acid synthase (Homo sapiens, UniProt P49327). In words: Reversible inhibition of human recombinant FASN ketoreductase site.
Test [7] is described as follows: Inhibition of Ustilago maydis recombinant ACC expressed in Escherichia coli BL21(DE3) using acetyl coA as substrate and [14C]NaHCO3 incubated for 10 mins prior to substrate addition by liquid scintillation counting. More on the design: species or system Mycosarcoma maydis.
In test [8] the target is T1, Fatty acid synthase. Kind of test: Antagonist activity at recombinant FASN thioesterase domain by fluorogenic assay. In kind it is functional.
For test [9], the target named is T2, Fatty acid synthase (Gallus gallus, UniProt P12276). Kind of test: Inhibition of chicken liver FASN after 3 hrs.
Test [10] concerns the target T2, Fatty acid synthase. Kind of test: Inhibition of chicken liver FASN ketoreductase activity.
In test [11] the target is T3, ATP-citrate synthase (Rattus norvegicus, UniProt P16638).
T3 sequence (P16638 whole entry): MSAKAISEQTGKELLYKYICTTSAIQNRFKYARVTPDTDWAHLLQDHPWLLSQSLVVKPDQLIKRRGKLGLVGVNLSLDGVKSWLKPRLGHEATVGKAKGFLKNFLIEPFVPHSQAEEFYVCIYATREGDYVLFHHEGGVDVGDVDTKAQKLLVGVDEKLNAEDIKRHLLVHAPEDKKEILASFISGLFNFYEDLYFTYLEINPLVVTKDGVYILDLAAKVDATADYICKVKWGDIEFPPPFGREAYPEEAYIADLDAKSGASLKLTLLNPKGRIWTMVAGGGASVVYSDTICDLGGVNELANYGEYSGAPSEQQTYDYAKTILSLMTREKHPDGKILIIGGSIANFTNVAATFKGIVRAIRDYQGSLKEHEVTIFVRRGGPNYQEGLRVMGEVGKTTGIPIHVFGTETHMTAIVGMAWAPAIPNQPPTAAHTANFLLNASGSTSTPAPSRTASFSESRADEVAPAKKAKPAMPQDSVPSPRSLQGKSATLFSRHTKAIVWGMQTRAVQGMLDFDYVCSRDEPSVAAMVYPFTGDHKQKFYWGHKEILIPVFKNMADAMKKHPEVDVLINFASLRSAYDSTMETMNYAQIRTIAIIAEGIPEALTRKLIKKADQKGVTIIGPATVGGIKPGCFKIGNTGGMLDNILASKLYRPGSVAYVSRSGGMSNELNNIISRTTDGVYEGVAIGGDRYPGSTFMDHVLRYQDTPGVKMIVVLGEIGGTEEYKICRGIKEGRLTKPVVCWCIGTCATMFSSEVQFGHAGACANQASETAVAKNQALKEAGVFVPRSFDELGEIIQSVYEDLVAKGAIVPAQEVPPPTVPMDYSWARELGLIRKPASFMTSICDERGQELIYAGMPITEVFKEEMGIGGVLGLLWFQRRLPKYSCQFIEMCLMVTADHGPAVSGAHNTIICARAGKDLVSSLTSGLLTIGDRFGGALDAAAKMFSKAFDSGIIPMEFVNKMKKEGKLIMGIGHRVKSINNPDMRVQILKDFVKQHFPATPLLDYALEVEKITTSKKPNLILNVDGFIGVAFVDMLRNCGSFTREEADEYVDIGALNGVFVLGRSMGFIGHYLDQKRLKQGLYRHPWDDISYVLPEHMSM
In words: Competitive inhibition of rat liver ACLY using citrate as substrate by spectrophotometric analysis.

For test [12], the target named is T3, ATP-citrate synthase. Kind of test: Competitive inhibition of rat liver ACLY using ATP as substrate by spectrophotometric analysis.
The target of test [13] is Fatty acid synthase (Rattus norvegicus, UniProt P12785). In words: Inhibition of FASN in rat liver.
Test [14] has as its target T1, Fatty acid synthase. Kind of test: Inhibition of FASN in human HepG2 cells. In kind it is cell-based.
Test [15] in a line: Inhibition of Escherichia coli FabB.
Test [16] concerns the target T3, ATP-citrate synthase. In words: Competitive inhibition of rat liver ACLY using CoA as substrate by spectrophotometric analysis.
Test [17] in a line: Inhibition of rat liver ACC.
Test [18] has as its system MDA-MB-435. Kind of test: Cytotoxicity against human MDA-MB-435 cells. In kind it is functional, cell-based.
Test [19] concerns the target T1, Fatty acid synthase. Kind of test: Antagonist activity at human recombinant FASN thioesterase domain by fluorogenic assay. In kind it is functional.
The test system of test [20] is MDA-MB-435. Kind of test: Selectivity ratio of IC50 for human MCF10A to IC50 for human MDA-MB-435 cells.
Test [21] addresses T1, Fatty acid synthase. In words: Inhibition of FASN in human SKBR3 cells. In kind it is cell-based, SK-BR-3.

T1 sequence (P49327 whole entry): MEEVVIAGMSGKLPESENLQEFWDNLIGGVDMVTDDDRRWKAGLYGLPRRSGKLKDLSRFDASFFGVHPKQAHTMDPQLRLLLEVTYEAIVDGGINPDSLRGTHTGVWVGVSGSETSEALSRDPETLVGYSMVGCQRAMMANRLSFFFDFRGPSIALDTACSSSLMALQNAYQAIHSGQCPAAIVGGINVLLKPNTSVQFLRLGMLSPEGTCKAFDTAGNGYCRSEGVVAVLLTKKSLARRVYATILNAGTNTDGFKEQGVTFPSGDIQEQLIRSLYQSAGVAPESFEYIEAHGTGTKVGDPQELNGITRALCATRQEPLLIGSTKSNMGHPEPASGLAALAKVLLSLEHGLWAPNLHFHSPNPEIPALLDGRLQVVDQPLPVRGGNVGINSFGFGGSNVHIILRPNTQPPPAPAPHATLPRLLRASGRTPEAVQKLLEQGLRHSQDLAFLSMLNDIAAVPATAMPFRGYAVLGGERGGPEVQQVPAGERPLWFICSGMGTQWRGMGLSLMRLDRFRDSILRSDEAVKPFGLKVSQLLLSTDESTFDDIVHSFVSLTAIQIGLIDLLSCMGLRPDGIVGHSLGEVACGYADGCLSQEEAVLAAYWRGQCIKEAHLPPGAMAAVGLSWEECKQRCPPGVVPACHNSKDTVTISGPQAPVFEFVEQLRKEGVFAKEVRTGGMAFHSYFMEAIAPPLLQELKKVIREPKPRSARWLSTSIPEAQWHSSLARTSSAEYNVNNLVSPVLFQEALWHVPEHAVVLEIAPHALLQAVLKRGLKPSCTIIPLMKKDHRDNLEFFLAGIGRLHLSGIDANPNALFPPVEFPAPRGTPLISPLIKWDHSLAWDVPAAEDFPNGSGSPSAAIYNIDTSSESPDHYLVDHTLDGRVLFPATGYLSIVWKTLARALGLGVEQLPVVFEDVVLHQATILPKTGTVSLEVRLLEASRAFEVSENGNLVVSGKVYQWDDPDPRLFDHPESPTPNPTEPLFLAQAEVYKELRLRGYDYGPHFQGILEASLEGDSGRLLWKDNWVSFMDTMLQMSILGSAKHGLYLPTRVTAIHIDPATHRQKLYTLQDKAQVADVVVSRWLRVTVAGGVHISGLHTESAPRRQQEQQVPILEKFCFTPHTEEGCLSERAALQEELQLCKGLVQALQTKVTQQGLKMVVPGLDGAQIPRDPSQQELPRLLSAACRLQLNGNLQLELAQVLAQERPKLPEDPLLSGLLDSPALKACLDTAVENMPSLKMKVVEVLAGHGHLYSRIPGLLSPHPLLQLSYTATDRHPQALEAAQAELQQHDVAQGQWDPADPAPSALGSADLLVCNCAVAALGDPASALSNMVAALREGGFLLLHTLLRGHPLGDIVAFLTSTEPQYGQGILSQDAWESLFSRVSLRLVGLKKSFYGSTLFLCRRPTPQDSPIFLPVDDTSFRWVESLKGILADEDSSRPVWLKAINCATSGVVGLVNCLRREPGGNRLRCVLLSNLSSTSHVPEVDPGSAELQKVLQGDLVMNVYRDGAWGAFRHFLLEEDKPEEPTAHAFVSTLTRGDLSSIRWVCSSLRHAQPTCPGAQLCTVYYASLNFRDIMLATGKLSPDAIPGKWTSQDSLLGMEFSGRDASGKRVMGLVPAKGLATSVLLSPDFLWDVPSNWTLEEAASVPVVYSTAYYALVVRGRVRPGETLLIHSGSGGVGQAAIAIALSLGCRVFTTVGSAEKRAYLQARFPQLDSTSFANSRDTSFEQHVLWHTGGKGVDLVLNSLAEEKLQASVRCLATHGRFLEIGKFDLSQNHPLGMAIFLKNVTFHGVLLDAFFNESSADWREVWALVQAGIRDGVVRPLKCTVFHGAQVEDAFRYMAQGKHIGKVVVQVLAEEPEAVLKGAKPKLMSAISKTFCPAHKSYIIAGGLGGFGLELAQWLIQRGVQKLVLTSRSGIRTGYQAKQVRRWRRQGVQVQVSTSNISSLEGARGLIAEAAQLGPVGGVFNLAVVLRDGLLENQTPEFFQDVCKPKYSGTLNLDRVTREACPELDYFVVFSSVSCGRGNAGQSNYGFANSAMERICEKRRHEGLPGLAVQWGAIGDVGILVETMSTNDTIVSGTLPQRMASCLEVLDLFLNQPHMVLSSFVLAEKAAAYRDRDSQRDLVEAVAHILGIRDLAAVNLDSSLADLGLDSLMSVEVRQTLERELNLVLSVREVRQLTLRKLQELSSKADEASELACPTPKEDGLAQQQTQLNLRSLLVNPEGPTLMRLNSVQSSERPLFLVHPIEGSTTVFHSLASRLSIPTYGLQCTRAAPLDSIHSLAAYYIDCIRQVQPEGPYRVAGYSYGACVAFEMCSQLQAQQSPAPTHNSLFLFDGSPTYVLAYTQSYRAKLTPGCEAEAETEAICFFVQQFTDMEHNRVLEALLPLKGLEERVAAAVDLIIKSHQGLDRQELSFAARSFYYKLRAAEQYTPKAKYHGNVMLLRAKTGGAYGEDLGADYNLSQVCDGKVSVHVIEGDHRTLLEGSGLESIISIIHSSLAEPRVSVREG
T2 sequence (P12276 whole entry): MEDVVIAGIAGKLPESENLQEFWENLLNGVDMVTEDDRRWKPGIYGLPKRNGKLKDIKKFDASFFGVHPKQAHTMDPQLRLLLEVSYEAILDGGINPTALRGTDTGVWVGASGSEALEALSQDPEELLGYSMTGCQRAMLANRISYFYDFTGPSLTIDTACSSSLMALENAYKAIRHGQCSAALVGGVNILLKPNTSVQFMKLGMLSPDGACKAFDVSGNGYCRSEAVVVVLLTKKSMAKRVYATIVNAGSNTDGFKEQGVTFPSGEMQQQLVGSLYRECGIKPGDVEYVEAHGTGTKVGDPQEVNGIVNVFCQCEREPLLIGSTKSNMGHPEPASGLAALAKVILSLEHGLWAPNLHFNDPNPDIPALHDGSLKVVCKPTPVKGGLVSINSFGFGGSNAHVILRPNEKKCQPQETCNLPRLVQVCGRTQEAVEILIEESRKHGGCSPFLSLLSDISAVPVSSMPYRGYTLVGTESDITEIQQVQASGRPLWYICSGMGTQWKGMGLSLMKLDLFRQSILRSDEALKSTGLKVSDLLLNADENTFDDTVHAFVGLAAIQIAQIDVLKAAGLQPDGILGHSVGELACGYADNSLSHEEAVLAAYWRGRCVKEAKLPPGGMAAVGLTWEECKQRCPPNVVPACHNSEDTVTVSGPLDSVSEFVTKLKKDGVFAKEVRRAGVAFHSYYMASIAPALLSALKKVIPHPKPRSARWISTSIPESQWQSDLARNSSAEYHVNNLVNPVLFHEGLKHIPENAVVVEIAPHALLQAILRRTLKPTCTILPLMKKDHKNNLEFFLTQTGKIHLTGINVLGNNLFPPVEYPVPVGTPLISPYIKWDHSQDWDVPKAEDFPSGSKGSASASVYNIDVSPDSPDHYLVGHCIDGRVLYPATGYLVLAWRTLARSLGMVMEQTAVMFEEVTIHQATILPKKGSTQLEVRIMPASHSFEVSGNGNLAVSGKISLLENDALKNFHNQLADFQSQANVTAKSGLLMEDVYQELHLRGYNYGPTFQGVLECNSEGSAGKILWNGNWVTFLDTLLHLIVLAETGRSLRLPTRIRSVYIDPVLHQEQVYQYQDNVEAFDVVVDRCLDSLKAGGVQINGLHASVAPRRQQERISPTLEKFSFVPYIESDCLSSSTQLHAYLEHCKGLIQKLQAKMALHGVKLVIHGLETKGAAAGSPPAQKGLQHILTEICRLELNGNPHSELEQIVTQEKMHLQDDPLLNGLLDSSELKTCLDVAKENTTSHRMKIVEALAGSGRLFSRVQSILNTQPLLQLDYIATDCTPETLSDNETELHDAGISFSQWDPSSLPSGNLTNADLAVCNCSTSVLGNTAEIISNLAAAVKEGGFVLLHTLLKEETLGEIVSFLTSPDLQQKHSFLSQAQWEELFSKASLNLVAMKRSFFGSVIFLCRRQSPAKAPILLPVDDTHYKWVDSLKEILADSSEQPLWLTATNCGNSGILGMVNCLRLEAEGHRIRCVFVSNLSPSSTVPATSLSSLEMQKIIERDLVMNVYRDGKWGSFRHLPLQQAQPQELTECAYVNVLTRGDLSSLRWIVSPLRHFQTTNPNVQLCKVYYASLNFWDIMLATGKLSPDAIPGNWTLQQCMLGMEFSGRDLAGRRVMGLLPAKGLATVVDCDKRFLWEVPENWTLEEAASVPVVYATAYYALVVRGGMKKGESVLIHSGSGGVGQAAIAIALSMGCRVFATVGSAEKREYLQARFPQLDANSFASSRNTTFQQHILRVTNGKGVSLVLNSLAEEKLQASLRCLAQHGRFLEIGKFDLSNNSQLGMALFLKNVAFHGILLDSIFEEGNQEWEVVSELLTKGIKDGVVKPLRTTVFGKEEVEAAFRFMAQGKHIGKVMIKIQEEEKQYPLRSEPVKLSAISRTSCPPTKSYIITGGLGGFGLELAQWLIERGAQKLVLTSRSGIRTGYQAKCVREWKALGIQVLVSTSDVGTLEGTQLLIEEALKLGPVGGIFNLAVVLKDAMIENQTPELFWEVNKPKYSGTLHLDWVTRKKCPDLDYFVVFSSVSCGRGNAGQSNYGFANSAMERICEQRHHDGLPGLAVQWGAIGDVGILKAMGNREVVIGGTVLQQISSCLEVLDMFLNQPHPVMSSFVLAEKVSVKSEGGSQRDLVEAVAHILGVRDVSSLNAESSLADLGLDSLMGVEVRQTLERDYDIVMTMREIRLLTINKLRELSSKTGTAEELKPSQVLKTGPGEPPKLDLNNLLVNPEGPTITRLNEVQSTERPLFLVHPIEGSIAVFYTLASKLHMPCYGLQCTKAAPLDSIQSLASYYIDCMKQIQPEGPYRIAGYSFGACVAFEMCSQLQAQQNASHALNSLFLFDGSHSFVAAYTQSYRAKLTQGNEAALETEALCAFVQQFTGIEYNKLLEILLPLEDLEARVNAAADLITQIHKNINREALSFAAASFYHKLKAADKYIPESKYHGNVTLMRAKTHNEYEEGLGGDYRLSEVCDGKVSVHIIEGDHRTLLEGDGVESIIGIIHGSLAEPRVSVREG

The compound `CCCCCCCCCCCCCCOc1ccc(C(=O)O)o1` [TOFA] displayed an IC50 in test [1] of 12.3 µM.
Turning to `O=C(O[C@H]1O[C@@H]2COc3c(c4cc(O)c(O)c(O)c4c4c(O)c(O)c(O)cc34)O[C@H]2[C@H](OC(=O)c2cc(O)c(O)c(O)c2)[C@H]1OC(=O)c1cc(O)c(O)c(O)c1)c1cc(O)c(O)c(Oc2c(C(=O)O[C@@H]3O[C@@H]4COC(=O)c5cc(O)c(O)c(O)c5-c5c(cc(O)c(O)c5O)C(=O)O[C@H]4[C@@H]4OC(=O)c5cc(O)c(O)c(O)c5-c5c(cc(O)c(O)c5O)C(=O)O[C@@H]34)cc(O)c(O)c2O)c1` [GEMIN A], the IC50 in test [2] turned out to be 0.21 µM; in [3], 40.4 µM.
As for `CC(C)Oc1ccc(C2=NC(CSc3nc4ncccc4o3)CO2)cc1` (configuration not stated), the IC50 in [4] is over 100 µM; in test [5] it was 2.8 µM.
For the compound `Cc1ccnc(NS(=O)(=O)c2ccc(NC(=O)Nc3ccc(S(=O)(=O)Nc4nccc(C)n4)cc3)cc2)n1`, in test [6], the IC50 came to 0.0158 µM.
Consider `CO[C@H]1CCCC[C@@H](c2ccccc2)OC(=O)[C@@H](C)[C@@]2(O)O[C@H]([C@@H](C)[C@H](O)[C@H]2OC)[C@@H](C)/C=C/[C@H]1OC` [SORAPHEN A], for which the Ki in test [7] came out at 0.0021 µM.
In the case of `O=C1O[C@@H](CCc2ccccc2)[C@H]1Cc1ccccc1`, the Ki in test [8] amounted to 2.5 µM.
In the case of `O=C(O[C@@H]1Cc2c(O)cc(O)cc2O[C@@H]1c1ccc(O)c(O)c1)c1cc(O)c(O)c(O)c1` [EPICATECHIN GALLATE], the half-inhibitory concentration (IC50) in test [9] came to 42 µM; in test [10], 68 µM.
With `C[C@@H]1C[C@H]2O[C@@H]2/C=C\C=C\C(=O)Cc2c(Cl)c(O)cc(O)c2C(=O)O1` [RADICICOL], the Ki is 13 µM in test [11] and 7 µM in [12].
With `C=C/C(C)=C/[C@@]1(C)SC(=O)C(C)=C1O` [THIOLACTOMYCIN], the 50% inhibitory concentration (IC50) in test [13] was over 951 µM; in [14] it was over 380 µM; in [15] it was 1.9 µM.
Consider `CC(C)(CCCCCCCCCCC(C)(C)CC(=O)O)CC(=O)O`, for which the values for the inhibitory constant (Ki) in test [11], in test [16] and in test [17] were 16 µM, 3 µM and 70 µM, respectively.
In test [18], `Cc1cc(C)cc(N2C(=O)NC(=O)/C(=C\c3ccc(-c4ccccc4)o3)C2=O)c1` registered a half-maximal inhibitory concentration (IC50) of 3.47 µM. The Ki in [19] stood at 0.38 µM. Moreover, the “Ratio IC50” value in test [20] was 2.
In test [21], `CCCCC/C=C\C=C\CCCCCCCCC(=O)O` displayed an IC50 of 100 µM.
